Results reported in patent US20230219986A1, “NOVEL AMINOPYRIMIDINE EGFR INHIBITOR” (QILU PHARMACEUTICAL CO., LTD., priority 2020, published 2023).
pIC50: −log10 of the molar value. Where two headings read alike, the source gives them in different places.

Legend:
[1] = target: Ba/F3 De119/T790M/C797S EGFR triple mutant cell line (Homo sapiens, UniProt P00533, T790M/C797S, cells depend on it, form not given); assay: Cell proliferation inhibition experiment (CellTiter-Glo), Ba/F3 De119/T790M/C797S; format: cell-based; conditions: Ba/F3 Del19/T790M/C797S EGFR triple mutant cells, 72 hours, Cell Titer-Glo; read-out: Ba/F3 (Del19/T790M/C797S) IC50
Ba/F3 De119/T790M/C797S EGFR triple mutant cell line, sequence (P00533 with tags, fused parts or gaps DEL746-750/T790M/C797S, form open): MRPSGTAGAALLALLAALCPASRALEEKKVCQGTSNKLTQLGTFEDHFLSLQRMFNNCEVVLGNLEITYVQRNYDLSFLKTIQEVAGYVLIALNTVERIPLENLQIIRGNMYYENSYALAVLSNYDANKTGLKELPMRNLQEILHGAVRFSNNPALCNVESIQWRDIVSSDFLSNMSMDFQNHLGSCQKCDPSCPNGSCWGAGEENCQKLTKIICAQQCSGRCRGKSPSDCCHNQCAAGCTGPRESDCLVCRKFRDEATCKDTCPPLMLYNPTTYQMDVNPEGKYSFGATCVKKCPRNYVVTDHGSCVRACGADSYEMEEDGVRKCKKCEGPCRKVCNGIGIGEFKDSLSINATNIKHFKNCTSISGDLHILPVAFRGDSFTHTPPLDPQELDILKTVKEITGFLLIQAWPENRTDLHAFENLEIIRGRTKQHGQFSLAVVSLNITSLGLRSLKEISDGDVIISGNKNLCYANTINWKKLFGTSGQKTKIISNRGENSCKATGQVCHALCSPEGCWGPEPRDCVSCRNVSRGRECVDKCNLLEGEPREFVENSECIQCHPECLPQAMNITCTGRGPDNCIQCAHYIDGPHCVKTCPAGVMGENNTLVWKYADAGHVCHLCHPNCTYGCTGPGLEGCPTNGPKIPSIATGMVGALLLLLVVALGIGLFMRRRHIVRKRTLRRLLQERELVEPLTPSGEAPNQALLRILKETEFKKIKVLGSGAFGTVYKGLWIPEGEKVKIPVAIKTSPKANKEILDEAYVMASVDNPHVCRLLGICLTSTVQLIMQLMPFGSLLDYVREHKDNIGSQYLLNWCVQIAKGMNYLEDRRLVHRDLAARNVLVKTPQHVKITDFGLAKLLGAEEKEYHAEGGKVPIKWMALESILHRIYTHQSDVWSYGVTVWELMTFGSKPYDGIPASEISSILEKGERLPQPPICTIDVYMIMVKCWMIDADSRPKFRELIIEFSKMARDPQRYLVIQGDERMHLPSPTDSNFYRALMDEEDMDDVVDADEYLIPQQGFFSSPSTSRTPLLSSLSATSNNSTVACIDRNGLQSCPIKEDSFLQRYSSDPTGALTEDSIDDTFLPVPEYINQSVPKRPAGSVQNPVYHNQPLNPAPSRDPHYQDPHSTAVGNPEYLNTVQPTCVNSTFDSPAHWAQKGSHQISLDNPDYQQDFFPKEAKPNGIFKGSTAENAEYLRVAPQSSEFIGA
Procedure: (§1) 3) 30 nL of gradient diluted compound was transferred into the 384-well experimental plate using Echo 550 (Labcyte) at a DMSO final concentration of 0.1%, and the culture plate was incubated in a cell incubator for 72 hours (37° C., 5% CO2).
(§2) 4) 30 μL of Cell Titer-Glo reagent was added to each well and left for 30 minutes at room temperature and protected from light.
(§3) 5) Envision microplate reader (PerkinElmer) detected chemiluminescence signals.
(§4) 6) GraphPad Prism 8 software was used for data analysis to obtain the IC50 of the compounds of the present disclosure and the positive control.

[2] = target: Ba/F3 L858R/T790M/C797S EGFR triple mutant cell line (Homo sapiens, UniProt P00533, T790M/C797S/L858R, cells depend on it); assay: Cell proliferation inhibition experiment (CellTiter-Glo), Ba/F3 L858R/T790M/C797S; format: cell-based; conditions: 72 hours, Cell Titer-Glo, read-out: Ba/F3 (L858R/T790M/C797S) IC50
Ba/F3 L858R/T790M/C797S EGFR triple mutant cell line, sequence (P00533 whole entry T790M/C797S/L858R): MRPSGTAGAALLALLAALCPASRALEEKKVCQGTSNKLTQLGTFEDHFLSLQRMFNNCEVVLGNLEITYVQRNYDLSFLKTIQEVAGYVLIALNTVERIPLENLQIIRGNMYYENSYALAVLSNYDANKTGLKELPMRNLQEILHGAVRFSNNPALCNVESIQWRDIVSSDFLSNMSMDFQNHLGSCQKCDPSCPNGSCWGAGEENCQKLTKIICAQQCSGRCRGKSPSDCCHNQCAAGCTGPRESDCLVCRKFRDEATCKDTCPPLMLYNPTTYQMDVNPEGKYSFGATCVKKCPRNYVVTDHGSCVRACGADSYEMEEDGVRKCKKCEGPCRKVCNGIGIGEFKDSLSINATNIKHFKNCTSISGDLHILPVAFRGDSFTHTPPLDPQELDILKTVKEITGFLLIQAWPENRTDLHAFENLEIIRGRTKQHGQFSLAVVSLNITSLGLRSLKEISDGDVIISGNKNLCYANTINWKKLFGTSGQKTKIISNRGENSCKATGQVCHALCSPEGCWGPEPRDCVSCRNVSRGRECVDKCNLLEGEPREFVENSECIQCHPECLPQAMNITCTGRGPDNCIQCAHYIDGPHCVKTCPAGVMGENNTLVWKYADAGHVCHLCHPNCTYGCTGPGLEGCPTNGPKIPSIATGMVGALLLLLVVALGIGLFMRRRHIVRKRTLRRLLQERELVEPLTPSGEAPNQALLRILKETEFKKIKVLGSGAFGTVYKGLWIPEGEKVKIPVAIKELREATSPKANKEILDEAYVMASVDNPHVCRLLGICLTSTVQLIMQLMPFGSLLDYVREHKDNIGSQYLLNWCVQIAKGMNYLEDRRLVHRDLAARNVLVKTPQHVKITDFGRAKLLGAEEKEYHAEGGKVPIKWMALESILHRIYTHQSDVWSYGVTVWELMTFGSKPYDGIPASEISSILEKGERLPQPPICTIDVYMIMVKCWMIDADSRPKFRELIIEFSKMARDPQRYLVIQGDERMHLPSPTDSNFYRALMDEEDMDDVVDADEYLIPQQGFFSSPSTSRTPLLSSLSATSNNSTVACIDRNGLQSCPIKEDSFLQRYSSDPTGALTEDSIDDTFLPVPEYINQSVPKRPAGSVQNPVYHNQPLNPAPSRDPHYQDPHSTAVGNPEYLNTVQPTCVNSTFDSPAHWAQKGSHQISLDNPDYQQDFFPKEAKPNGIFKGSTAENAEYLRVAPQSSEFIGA
Procedure: as §1, §2, §3, §4

[3] = system: EGFR wild-type cell line A431; assay: Cell proliferation inhibition experiment (CellTiter-Glo), A431; format: cell-based; conditions: A431 cells, Cell Titer-Glo, read-out: A431 EGFR WT IC50
Procedure: A431 cells, purchased from ATCC.
1) A431 cells were inoculated in a 384-well culture plate at a density of 800 cells per well, 30 μL per well, placed in a cell incubator, and cultured for 24 hours (37° C., 5% CO2).
as §1, §2, §3, §4

wild-type EGFR = target: T1, wild-type EGFR (Homo sapiens, UniProt P00533); assay: Enzymology experiment in vitro (HTRF/FRET kinase activity), wild-type EGFR; format: biochemical; conditions: HTRF KinEASE-TK, read-out: EGFR (WT) IC50
T1 construct: purchased Signalchem
T1 sequence (P00533 25-1210): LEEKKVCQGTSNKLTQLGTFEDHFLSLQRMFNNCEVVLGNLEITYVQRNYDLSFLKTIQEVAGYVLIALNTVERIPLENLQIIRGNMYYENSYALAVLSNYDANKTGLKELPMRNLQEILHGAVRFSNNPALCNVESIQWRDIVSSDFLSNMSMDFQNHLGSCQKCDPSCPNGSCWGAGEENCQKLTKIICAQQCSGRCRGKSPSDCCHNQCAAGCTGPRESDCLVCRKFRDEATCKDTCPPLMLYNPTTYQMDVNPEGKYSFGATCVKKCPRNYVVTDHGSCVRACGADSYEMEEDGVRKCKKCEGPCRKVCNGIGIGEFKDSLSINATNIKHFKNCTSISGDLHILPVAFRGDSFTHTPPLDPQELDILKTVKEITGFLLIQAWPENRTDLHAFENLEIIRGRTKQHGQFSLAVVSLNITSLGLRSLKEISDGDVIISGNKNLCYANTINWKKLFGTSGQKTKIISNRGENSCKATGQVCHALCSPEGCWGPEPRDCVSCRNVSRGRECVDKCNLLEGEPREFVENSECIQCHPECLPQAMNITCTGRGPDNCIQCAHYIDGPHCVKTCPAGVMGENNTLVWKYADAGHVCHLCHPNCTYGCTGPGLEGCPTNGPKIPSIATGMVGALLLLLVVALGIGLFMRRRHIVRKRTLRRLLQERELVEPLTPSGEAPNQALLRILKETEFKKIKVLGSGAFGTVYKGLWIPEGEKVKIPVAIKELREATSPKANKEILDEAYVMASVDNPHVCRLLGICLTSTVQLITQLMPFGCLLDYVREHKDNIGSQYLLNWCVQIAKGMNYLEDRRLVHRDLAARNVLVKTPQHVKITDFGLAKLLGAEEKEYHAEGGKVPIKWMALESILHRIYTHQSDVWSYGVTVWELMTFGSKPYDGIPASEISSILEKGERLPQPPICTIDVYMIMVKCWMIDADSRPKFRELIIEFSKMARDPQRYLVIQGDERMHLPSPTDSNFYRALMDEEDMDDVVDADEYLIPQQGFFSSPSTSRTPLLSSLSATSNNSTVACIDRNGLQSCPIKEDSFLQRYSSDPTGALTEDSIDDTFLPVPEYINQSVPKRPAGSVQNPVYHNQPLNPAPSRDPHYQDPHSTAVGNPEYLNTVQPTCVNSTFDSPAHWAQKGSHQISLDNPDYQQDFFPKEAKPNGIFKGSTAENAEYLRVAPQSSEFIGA
Procedure: (§5) 1. Experimental Materials
(§6) HTRF KinEASE-TK kit detection reagent, purchased from Cisbio
(§7) 1) 10 nL of gradient diluted compound was transferred into a 384-well experimental plate using Echo 550 (Labcyte).
(§8) 2) 5 μL of 2×EGFR enzyme solution was added to the 384-well experimental plate and incubated at room temperature for 10 minutes.
(§9) 3) 5 μL of 2× substrate solution containing polypeptide and ATP was added to the 384-well experimental plate and incubated at room temperature for 40 minutes.
(§10) 4) 10 μL of detection solution containing EDTA, XL665-labeled streptavidin and Eu^3+-labeled antibody was added thereto and incubated at room temperature for 1 hour.

[4] = target: T2, L858R/T790M/C797S triple mutant EGFR (Homo sapiens, UniProt P00533, C797S/L858R/T790M); assay: Enzymology experiment in vitro (HTRF/FRET kinase activity), L858R/T790M/C797S triple mutant EGFR; format: biochemical; conditions: HTRF KinEASE-TK, read-out: EGFR (L858R/T790M/C797S) IC50
T2 construct: purchased Signalchem
T2 sequence (P00533 25-1210 T790M/C797S/L858R): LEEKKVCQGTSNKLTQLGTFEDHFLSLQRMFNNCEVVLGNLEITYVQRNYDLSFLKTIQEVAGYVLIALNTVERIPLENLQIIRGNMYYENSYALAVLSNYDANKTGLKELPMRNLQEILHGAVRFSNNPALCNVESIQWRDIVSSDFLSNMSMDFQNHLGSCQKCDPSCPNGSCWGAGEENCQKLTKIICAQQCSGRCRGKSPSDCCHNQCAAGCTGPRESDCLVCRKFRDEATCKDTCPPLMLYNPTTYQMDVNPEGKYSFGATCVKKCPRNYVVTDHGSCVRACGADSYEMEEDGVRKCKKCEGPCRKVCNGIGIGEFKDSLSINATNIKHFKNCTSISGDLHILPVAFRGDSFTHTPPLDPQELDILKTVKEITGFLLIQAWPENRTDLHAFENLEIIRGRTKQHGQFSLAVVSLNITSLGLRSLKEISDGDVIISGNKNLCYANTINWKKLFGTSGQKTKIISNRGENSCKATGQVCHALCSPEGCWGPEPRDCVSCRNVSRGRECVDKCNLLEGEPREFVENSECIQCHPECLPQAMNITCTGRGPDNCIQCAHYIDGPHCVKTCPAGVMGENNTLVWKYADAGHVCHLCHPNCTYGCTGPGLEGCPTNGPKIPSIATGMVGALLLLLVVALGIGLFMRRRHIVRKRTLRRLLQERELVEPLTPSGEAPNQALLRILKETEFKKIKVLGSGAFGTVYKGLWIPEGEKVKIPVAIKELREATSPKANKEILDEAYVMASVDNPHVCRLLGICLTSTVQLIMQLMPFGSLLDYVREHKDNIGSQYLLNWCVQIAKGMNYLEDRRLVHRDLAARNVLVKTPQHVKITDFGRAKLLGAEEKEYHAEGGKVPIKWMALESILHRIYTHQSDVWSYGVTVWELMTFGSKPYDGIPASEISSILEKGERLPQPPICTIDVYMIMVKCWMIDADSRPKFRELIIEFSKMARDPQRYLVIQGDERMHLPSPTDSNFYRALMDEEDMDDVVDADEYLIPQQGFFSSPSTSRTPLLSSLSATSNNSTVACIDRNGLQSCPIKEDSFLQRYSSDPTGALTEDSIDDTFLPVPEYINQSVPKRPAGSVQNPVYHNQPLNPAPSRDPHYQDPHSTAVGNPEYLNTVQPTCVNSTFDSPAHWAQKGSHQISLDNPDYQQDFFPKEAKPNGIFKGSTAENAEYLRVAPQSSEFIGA
Procedure: as §5, §6, §7, §8, §9, §10

GI50 [1] [µM] | GI50 [2] [µM] | pIC50 ([3]; Homo sapiens, A-431, 72 h) | pIC50 (wild-type EGFR) | pIC50 [4] | pIC50 ([3]; 72 hours) | Structure (SMILES) | pIC50 ([3]; Homo sapiens, A-431, 72 hours)
0.326 | 0.536 | 5.49 |  |  |  | COc1cc(N2CCOCC2)c(-n2cc(C)cn2)cc1Nc1ncc(Br)c(Nc2ccc3nccnc3c2P(C)(C)=O)n1 [compound 73] | 
0.0054 | 0.00996 | 7.68 |  |  |  | CN1CCC2(CC1)CCN(c1ccc(Nc3ncc(Br)c(Nc4ccc5nccnc5c4P(C)(C)=O)n3)cc1-c1cnn(C)c1)CC2 [compound 76] | 
0.251 | 0.446 | 5.36 |  |  |  | COc1cc(N2CCOCC2)c(-c2ccnn2C)cc1Nc1ncc(Br)c(Nc2ccc3nccnc3c2P(C)(C)=O)n1 [compound 90] | 
0.278 | 0.43 | 5.45 |  |  |  | COc1cc(N2CCOCC2)c(-c2cncn2C)cc1Nc1ncc(Br)c(Nc2ccc3nccnc3c2P(C)(C)=O)n1 [compound 91] | 
0.0157 | 0.0409 | 7.01 |  |  |  | COc1c(Nc2ncc(Br)c(Nc3ccc4nccnc4c3P(C)(C)=O)n2)cc(-c2cnn(C)c2)c(N2CCC(N(C)C)CC2)c1F [compound 95] | 
0.00352 | 0.00939 | 7.35 |  |  |  | COc1cc(N2CCC(N(C)C)CC2)c(-c2cnn(C)c2)cc1Nc1ncc(Br)c(Nc2ccc3nccnc3c2P(C)(C)=O)n1 [compound 96] | 
0.0406 | 0.104 | 6.68 |  |  |  | COc1cc(N2CCN(CCO)CC2)c(-c2cnn(C)c2)cc1Nc1ncc(Br)c(Nc2ccc3nccnc3c2P(C)(C)=O)n1 [compound 99] | 
0.00287 | 0.0062 | 7.54 |  |  |  | Cc1cc(Nc2ncc(Br)c(Nc3ccc4nccnc4c3P(C)(C)=O)n2)cc(-c2cnn(C)c2)c1N1CCOCC1 [compound 100, (6-((5-bromo-2-((3-methyl-5-(1-methyl-1H-pyrazol-4-yl)-4-morpholinylphenyl)amino)pyrimidin-4-yl)amino)quinoxalin-5-yl)dimethylphosphine oxide] | 
0.0125 | 0.0245 | 7.03 |  |  |  | COc1cc(N2CCN(C)C(C)(C)C2)c(-c2cnn(C)c2)cc1Nc1ncc(Br)c(Nc2ccc3nccnc3c2P(C)(C)=O)n1 [compound 108] | 
0.0463 | 0.0628 | 6.26 |  |  |  | COc1cc(N2CC3(COC3)C2)c(-c2cnn(C)c2)cc1Nc1ncc(Br)c(Nc2ccc3nccnc3c2P(C)(C)=O)n1 [compound 109] | 
0.0745 | 0.176 | 6.72 |  |  |  | COc1cc(N2CCC(C)(N)CC2)c(-c2cnn(C)c2)cc1Nc1ncc(Br)c(Nc2ccc3nccnc3c2P(C)(C)=O)n1 [compound 113] | 
0.041 | 0.12 | 6.80 |  |  |  | COc1cc(N2CCNCC2)c(-c2cnn(C)c2)cc1Nc1ncc(Br)c(Nc2ccc3nccnc3c2P(C)(C)=O)n1 [compound 117] | 
0.00072 | 0.00271 |  |  | 9.57 | 7.06 | COc1cc(N2CCC(N3CCOCC3)CC2)c(-c2cnn(C)c2)cc1Nc1ncc(Br)c(Nc2ccc3nccnc3c2P(C)(C)=O)n1 [compound 129] | 
0.0256 | 0.035 | 7.23 |  |  |  | COc1cc(C2=CCN(C)CC2)c(-c2cnn(C)c2)cc1Nc1ncc(Br)c(Nc2ccc3nccnc3c2P(C)(C)=O)n1 [compound 177] | 
0.00442 | 0.00723 |  |  | 9.96 | 6.56 | COc1cc(N2CCC(N3CCOCC3)CC2)c(-c2cnn(C)c2)cc1Nc1ncc(Br)c(Nc2ccc3nccnc3c2P(C)(C)=O)n1 [compound 210] | 

The next lines start with the molecule.

Structure (SMILES) | GI50 [1] [µM] | GI50 [2] [µM] | pIC50 ([3]; Homo sapiens, A-431, 72 h) | pIC50 (wild-type EGFR) | pIC50 [4] | pIC50 ([3]; 72 hours) | pIC50 ([3]; Homo sapiens, A-431, 72 hours)
COc1cc(N2CCC(N3CCN(C)CC3)CC2)ccc1Nc1ncc(Cl)c(Nc2ccccc2P(C)(C)=O)n1 [Brigatinib, reference compound] | 0.103 | 0.32 |  |  |  |  | 6.11
COc1c(Nc2ncc(Br)c(Nc3ccc4nccnc4c3P(C)(C)=O)n2)cc(-c2cnn(C)c2)c(N2CCOCC2)c1C [Compound 68, (6-((5-bromo-2-((2-methoxy-3-methyl-5-(1-methyl-1H-pyrazol-4-yl)-4-morpholinylphenyl)amino)pyrimidin-4-yl)amino)quinoxalin-5-yl)dimethylphosphine oxide] | 0.114 | 0.372 | 5.86 |  |  |  | 
CN1CCN(c2ncc(Nc3ncc(Br)c(Nc4ccc5nccnc5c4P(C)(C)=O)n3)cc2-c2cnn(C)c2)CC1 [Compound 70, (6-((5-bromo-2-((5-(1-methyl-1H-pyrazol-4-yl)-6-(4-methylpiperazin-1-yl)pyridin-3-yl)amino)pyrimidin-4-yl)amino)quinoxalin-5-yl)dimethylphosphine oxide] | 0.117 | 0.348 | 6.80 |  |  |  | 
COc1cc(S(C)(=O)=O)c(-c2cnn(C)c2)cc1Nc1ncc(Br)c(Nc2ccc3nccnc3c2P(C)(C)=O)n1 [compound 44] | 0.0935 |  | ≤ 5.30 | 5.81 | 7.66 |  | 
COc1nc(N(C)CCN(C)C)c(-c2cnn(C)c2)cc1Nc1ncc(Br)c(Nc2ccc3nccnc3c2P(C)(C)=O)n1 [compound 45] | 0.00765 |  | 6.99 |  |  |  | 
Cn1cc(-c2cc(Nc3ncc(Br)c(Nc4ccc5nccnc5c4P(C)(C)=O)n3)cc(F)c2N2CCOCC2)cn1 [compound 46] | 0.00671 | 0.0117 | 7.17 |  |  |  | 
CN1CCOc2c(Nc3ncc(Br)c(Nc4ccc5nccnc5c4P(C)(C)=O)n3)cc(-c3cnn(C)c3)cc21 [compound 47] | 0.00431 |  | 6.90 | 7.69 | 9.43 |  | 
Cn1cc(-c2cc(Nc3ncc(Br)c(Nc4ccc5nccnc5c4P(C)(C)=O)n3)ccc2N2CCOCC2)cn1 [compound 48] | 0.00302 | 0.00603 | 7.29 |  |  |  | 
CCn1cc(-c2cc(Nc3ncc(Br)c(Nc4ccc5nccnc5c4P(C)(C)=O)n3)c(OC)cc2N2CCOCC2)cn1 [compound 49] | 0.00488 |  | 6.63 | 7.67 | 9.92 |  | 
COc1ccc(-n2ccnc2)cc1Nc1ncc(Br)c(Nc2ccc3nccnc3c2P(C)(C)=O)n1 [compound 50] | 0.0341 |  | 6.29 |  |  |  | 
CNC(=O)c1ccccc1Nc1nc(Nc2cc(-c3cnn(C)c3)c(N3CCOCC3)cc2OC)ncc1Br [compound 52] | 0.0267 |  | 6.80 |  |  |  | 
COc1cc(N2CCOCC2)c(-c2cnn(C)c2)cc1Nc1ncc(Br)c(Nc2ccccc2S(=O)(=O)C(C)C)n1 [compound 54] | 0.103 |  | 6.20 |  |  |  | 
COc1cc(P(C)(C)=O)c(-c2cnn(C)c2)cc1Nc1ncc(Br)c(Nc2ccc3nccnc3c2P(C)(C)=O)n1 [compound 55] | 1.23 |  | ≤ 5.30 |  |  |  | 
COc1cc(N2CCOCC2)c(C#N)cc1Nc1ncc(Br)c(Nc2ccc3nccnc3c2P(C)(C)=O)n1 [compound 59] | 0.0262 |  | 6.46 |  |  |  | 
COc1cc(N2CCOCC2)c(-c2cncnc2)cc1Nc1ncc(C)c(Nc2ccc3nccnc3c2P(C)(C)=O)n1 [compound 60] | 0.0893 |  | 6.18 |  |  |  | 
COc1cc(N2CCOCC2)c(-n2cccn2)cc1Nc1ncc(Br)c(Nc2ccc3nccnc3c2P(C)(C)=O)n1 [compound 61] | 0.312 | 0.794 | 5.18 |  |  |  | 
COc1cc(N2CCOCC2)c(-c2cnn(C)c2)c(F)c1Nc1ncc(Br)c(Nc2ccc3nccnc3c2P(C)(C)=O)n1 [compound 62] | 0.0736 | 0.195 | 5.47 |  |  |  | 
COc1nc(N2CCOCC2)c(-c2cnn(C)c2)cc1Nc1ncc(C)c(Nc2ccc3nccnc3c2P(C)(C)=O)n1 [compound 63] | 0.0143 | 0.0249 | 6.48 |  |  |  | 
COc1nc(N2CCN(C)CC2)c(-c2cnn(C)c2)cc1Nc1ncc(Br)c(Nc2ccc3nccnc3c2P(C)(C)=O)n1 [compound 65] | 0.00668 | 0.0173 | 7.14 |  |  |  | 
COc1cc(N2CCCCC2)c(-c2cnn(C)c2)cc1Nc1ncc(Br)c(Nc2ccc3nccnc3c2P(C)(C)=O)n1 [compound 66] | 0.00304 | 0.0108 | 6.24 |  |  |  | 
COc1nc(N2CCC3(CC2)COC3)c(-c2cnn(C)c2)cc1Nc1ncc(Br)c(Nc2ccc3nccnc3c2P(C)(C)=O)n1 [compound 67] | 0.0423 | 0.0592 |  |  |  |  | 6.21
